Data as given in ChEMBL document CHEMBL4507304, “Data for DCP probe TP-021” (2021).

Experiments:
[1] = biological target: Muscarinic acetylcholine receptor M1 (Homo sapiens) (UniProt P11229); settings: Compound concentration 10.0 uM
[2] = biological target: 5-hydroxytryptamine receptor 7 (Homo sapiens) (UniProt P34969); settings: Compound concentration 10.0 uM
[3] = biological target: Tyrosine-protein kinase HCK (Homo sapiens) (UniProt P08631); settings: Compound concentration 1000.0 nM
[4] = biological target: Serine/threonine-protein kinase Sgk1 (Homo sapiens) (UniProt O00141); settings: Compound concentration 1000.0 nM
Serine/threonine-protein kinase Sgk1 (Homo sapiens), sequence (O00141 whole entry): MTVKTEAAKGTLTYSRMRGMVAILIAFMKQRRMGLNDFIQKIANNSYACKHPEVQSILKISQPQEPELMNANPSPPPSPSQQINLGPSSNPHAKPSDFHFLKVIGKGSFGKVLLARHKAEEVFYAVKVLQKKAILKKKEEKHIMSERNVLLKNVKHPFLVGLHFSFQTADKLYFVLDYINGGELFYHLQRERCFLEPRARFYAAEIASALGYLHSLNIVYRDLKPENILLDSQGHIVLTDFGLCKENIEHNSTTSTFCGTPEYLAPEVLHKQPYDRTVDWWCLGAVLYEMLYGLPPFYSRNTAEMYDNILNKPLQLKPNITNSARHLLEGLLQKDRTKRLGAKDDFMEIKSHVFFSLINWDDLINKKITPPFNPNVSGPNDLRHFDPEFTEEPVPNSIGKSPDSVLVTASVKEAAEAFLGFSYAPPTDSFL

[5] = biological target: Membrane-associated tyrosine- and threonine-specific cdc2-inhibitory kinase (Homo sapiens) (UniProt Q99640); settings: Compound concentration 1000.0 nM
[6] = biological target: Mitogen-activated protein kinase 1 (Homo sapiens) (UniProt P28482); settings: Compound concentration 1000.0 nM
[7] = biological target: Dual specificity tyrosine-phosphorylation-regulated kinase 1B (Homo sapiens) (UniProt Q9Y463); settings: Compound concentration 1000.0 nM
Dual specificity tyrosine-phosphorylation-regulated kinase 1B (Homo sapiens), sequence (Q9Y463 whole entry, looked up): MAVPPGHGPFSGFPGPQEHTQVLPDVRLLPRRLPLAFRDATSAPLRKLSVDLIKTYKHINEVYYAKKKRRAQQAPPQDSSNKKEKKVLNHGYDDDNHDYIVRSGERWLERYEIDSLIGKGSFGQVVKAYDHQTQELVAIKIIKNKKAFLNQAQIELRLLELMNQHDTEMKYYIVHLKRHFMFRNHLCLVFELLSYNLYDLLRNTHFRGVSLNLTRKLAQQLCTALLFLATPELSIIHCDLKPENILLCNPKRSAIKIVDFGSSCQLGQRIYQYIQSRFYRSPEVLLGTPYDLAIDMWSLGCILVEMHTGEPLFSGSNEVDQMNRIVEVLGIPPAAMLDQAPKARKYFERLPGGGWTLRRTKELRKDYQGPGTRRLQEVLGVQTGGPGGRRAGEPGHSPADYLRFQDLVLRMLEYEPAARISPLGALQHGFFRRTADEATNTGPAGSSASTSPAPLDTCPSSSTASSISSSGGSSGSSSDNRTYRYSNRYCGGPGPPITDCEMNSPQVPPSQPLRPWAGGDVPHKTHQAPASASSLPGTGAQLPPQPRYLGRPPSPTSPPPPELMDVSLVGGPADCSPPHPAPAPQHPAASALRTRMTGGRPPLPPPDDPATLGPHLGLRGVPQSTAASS

[8] = biological target: Tyrosine-protein kinase Srms (Homo sapiens) (UniProt Q9H3Y6); settings: Compound concentration 1000.0 nM
Tyrosine-protein kinase Srms (Homo sapiens), sequence (Q9H3Y6 whole entry): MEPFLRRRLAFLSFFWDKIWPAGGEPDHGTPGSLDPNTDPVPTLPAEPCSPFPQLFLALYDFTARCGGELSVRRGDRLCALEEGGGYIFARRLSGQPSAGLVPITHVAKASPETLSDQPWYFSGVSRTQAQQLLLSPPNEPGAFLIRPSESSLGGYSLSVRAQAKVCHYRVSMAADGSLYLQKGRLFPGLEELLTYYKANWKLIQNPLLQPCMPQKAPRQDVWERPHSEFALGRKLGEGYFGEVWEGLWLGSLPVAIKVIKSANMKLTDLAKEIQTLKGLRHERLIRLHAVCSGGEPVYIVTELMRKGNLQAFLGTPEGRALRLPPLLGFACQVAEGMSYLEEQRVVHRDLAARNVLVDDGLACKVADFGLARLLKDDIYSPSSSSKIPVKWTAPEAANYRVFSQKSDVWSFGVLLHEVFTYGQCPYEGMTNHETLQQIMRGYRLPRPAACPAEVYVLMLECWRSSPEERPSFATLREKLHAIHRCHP

[9] = biological target: Tyrosine-protein kinase Lyn (Homo sapiens) (UniProt P07948); settings: Compound concentration 1000.0 nM
[10] = biological target: Calcium/calmodulin-dependent protein kinase type IV (Homo sapiens) (UniProt Q16566); settings: Compound concentration 1000.0 nM
[11] = biological target: Atypical kinase COQ8A, mitochondrial (Homo sapiens) (UniProt Q8NI60); settings: Compound concentration 1000.0 nM
[12] = biological target: Dual specificity mitogen-activated protein kinase kinase 4 (Homo sapiens) (UniProt P45985); settings: Compound concentration 1000.0 nM
[13] = test system: Epidermal growth factor receptor (Homo sapiens), P00533 [UNDEFINED MUTATION]; settings: Compound concentration 1000.0 nM
[14] = test system: Tyrosine-protein kinase ABL1 (Homo sapiens), P00519 [T315I]; settings: Compound concentration 1000.0 nM
[15] = test system: Mast/stem cell growth factor receptor Kit (Homo sapiens), P10721 [D816V]; settings: Compound concentration 1000.0 nM
[16] = biological target: MAP/microtubule affinity-regulating kinase 3 (Homo sapiens) (UniProt P27448); settings: Compound concentration 1000.0 nM
MAP/microtubule affinity-regulating kinase 3 (Homo sapiens), sequence (P27448 whole entry, looked up): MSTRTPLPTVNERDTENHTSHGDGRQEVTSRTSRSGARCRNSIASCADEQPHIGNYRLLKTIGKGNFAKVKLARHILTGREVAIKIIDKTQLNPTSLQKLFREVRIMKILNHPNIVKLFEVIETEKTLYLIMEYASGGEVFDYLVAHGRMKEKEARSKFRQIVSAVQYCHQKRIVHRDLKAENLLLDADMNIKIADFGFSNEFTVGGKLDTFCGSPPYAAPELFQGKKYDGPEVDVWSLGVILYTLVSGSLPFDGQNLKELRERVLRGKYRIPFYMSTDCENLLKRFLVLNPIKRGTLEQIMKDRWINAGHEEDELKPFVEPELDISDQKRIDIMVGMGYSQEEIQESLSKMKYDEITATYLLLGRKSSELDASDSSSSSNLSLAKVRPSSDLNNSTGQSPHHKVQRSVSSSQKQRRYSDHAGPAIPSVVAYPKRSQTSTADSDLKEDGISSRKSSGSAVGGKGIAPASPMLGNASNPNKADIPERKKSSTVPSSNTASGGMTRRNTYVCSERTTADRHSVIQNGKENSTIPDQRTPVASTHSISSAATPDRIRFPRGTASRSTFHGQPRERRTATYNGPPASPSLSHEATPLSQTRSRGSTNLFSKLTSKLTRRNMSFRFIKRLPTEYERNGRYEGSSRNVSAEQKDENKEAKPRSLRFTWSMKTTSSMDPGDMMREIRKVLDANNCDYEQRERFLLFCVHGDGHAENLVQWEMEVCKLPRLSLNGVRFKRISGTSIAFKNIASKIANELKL

[17] = biological target: Hepatocyte growth factor receptor (Homo sapiens) (UniProt P08581); settings: Compound concentration 1000.0 nM
[18] = biological target: Protein-tyrosine kinase 2-beta (Homo sapiens) (UniProt Q14289); settings: Compound concentration 1000.0 nM
[19] = test system: Receptor-type tyrosine-protein kinase FLT3 (Homo sapiens), P36888 [D835Y]; settings: Compound concentration 1000.0 nM
[20] = biological target: Tyrosine-protein kinase BTK (Homo sapiens) (UniProt Q06187); settings: Compound concentration 1000.0 nM
[21] = biological target: Myosin light chain kinase, smooth muscle (Homo sapiens) (UniProt Q15746); settings: Compound concentration 1000.0 nM
Myosin light chain kinase, smooth muscle (Homo sapiens), sequence (Q15746 whole entry): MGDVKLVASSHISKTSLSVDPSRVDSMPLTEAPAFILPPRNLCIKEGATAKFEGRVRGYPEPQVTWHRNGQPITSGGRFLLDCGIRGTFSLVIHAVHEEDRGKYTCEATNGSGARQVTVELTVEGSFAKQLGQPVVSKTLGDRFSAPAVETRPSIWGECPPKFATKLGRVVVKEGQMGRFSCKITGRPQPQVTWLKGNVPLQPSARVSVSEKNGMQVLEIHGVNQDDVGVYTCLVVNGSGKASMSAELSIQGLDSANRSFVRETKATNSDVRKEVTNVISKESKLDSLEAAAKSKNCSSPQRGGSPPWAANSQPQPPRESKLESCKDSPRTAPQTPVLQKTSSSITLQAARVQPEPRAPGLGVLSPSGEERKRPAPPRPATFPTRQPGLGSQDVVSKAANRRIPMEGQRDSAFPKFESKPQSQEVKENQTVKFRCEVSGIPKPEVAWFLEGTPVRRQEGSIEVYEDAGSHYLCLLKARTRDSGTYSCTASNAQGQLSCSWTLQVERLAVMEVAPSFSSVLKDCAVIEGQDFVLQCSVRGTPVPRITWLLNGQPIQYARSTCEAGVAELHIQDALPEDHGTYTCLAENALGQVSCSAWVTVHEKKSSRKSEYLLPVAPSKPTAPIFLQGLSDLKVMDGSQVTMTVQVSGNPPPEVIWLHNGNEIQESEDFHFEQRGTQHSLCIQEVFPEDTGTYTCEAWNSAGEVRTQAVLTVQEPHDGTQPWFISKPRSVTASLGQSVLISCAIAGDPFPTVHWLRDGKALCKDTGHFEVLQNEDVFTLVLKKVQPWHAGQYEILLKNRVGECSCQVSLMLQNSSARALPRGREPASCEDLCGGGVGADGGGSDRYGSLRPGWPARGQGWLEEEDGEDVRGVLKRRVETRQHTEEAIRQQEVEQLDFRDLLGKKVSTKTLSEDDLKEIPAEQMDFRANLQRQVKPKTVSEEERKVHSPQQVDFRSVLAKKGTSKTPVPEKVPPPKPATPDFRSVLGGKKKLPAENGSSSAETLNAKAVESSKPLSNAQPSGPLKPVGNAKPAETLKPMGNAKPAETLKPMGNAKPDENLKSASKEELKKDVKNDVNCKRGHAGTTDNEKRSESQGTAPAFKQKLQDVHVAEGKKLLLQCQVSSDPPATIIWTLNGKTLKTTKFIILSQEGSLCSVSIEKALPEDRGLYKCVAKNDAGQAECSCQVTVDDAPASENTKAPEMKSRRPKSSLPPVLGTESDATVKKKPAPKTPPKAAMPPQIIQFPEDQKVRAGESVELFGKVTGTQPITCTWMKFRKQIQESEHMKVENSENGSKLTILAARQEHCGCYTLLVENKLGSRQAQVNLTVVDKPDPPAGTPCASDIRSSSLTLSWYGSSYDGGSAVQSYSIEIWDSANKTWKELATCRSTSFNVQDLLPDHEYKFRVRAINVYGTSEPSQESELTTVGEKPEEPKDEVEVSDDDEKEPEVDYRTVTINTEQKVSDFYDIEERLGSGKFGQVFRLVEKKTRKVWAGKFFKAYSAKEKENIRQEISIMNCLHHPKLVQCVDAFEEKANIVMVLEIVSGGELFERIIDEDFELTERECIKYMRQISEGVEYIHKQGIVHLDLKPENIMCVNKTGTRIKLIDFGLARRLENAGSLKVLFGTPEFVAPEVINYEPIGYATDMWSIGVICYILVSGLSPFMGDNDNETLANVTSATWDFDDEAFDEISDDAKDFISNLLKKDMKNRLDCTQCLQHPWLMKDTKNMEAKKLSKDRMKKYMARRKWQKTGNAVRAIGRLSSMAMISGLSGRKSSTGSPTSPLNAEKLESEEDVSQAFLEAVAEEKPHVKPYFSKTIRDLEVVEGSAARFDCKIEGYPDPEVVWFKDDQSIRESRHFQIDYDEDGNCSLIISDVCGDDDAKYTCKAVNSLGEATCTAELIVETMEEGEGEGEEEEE

[22] = biological target: Calcium/calmodulin-dependent protein kinase type II subunit delta (Homo sapiens) (UniProt Q13557); settings: Compound concentration 1000.0 nM
[23] = biological target: Atypical kinase COQ8B, mitochondrial (Homo sapiens) (UniProt Q96D53); settings: Compound concentration 1000.0 nM
Atypical kinase COQ8B, mitochondrial (Homo sapiens), sequence (Q96D53 whole entry, canonical isoform): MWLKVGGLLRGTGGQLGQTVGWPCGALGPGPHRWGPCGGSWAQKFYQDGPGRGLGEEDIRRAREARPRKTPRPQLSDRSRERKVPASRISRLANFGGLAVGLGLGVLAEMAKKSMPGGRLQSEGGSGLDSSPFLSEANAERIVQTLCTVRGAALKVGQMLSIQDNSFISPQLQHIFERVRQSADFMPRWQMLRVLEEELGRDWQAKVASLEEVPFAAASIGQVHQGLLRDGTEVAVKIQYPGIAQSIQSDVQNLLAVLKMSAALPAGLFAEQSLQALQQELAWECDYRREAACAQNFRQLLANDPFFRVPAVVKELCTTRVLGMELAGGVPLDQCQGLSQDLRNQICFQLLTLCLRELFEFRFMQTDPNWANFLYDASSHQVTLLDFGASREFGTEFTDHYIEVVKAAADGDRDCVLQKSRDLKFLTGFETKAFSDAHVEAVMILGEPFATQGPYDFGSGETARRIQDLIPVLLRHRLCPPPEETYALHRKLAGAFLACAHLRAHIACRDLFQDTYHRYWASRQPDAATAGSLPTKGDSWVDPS

[24] = test system: Phosphatidylinositol 4,5-bisphosphate 3-kinase catalytic subunit alpha isoform (Homo sapiens), P42336 [M1043I]; settings: Compound concentration 1000.0 nM
[25] = test system: Phosphatidylinositol 4,5-bisphosphate 3-kinase catalytic subunit alpha isoform (Homo sapiens), P42336 [E545K]; settings: Compound concentration 1000.0 nM
[26] = biological target: Ribosomal protein S6 kinase alpha-1 (Homo sapiens) (UniProt Q15418); settings: Compound concentration 1000.0 nM
[27] = biological target: Ribosomal protein S6 kinase alpha-5 (Homo sapiens) (UniProt O75582); settings: Compound concentration 1000.0 nM
[28] = biological target: Receptor tyrosine-protein kinase erbB-3 (Homo sapiens) (UniProt P21860); settings: Compound concentration 1000.0 nM
[29] = biological target: Ephrin type-A receptor 4 (Homo sapiens) (UniProt P54764); settings: Compound concentration 1000.0 nM
[30] = biological target: Ribosomal protein S6 kinase alpha-6 (Homo sapiens) (UniProt Q9UK32); settings: Compound concentration 1000.0 nM
[31] = biological target: Activated CDC42 kinase 1 (Homo sapiens) (UniProt Q07912); settings: Compound concentration 1000.0 nM
[32] = biological target: Fibroblast growth factor receptor 3 (Homo sapiens) (UniProt P22607); settings: Compound concentration 1000.0 nM
[33] = biological target: 5-hydroxytryptamine receptor 6 (Homo sapiens) (UniProt P50406); settings: Compound concentration 10.0 uM
[34] = biological target: Ribosomal protein S6 kinase alpha-4 (Homo sapiens) (UniProt O75676); settings: Compound concentration 1000.0 nM
[35] = biological target: Mitogen-activated protein kinase 10 (Homo sapiens) (UniProt P53779); settings: Compound concentration 1000.0 nM
[36] = biological target: RAC-gamma serine/threonine-protein kinase (Homo sapiens) (UniProt Q9Y243); settings: Compound concentration 1000.0 nM
[37] = biological target: 5-hydroxytryptamine receptor 2A (Homo sapiens) (UniProt P28223); settings: Compound concentration 10.0 uM
[38] = biological target: Fibroblast growth factor receptor 2 (Homo sapiens) (UniProt P21802); settings: Compound concentration 1000.0 nM
[39] = biological target: Interleukin-1 receptor-associated kinase 1 (Homo sapiens) (UniProt P51617); settings: Compound concentration 1000.0 nM
[40] = biological target: Serine/threonine-protein kinase PLK4 (Homo sapiens) (UniProt O00444); settings: Compound concentration 1000.0 nM
[41] = biological target: Cyclin-dependent kinase-like 5 (Homo sapiens) (UniProt O76039); settings: Compound concentration 1000.0 nM
[42] = biological target: Fibroblast growth factor receptor 1 (Homo sapiens) (UniProt P11362); settings: Compound concentration 1000.0 nM
[43] = biological target: Interleukin-1 receptor-associated kinase 4 (Homo sapiens) (UniProt Q9NWZ3); settings: Compound concentration 1000.0 nM
[44] = biological target: Angiopoietin-1 receptor (Homo sapiens) (UniProt Q02763); settings: Compound concentration 1000.0 nM
[45] = biological target: Serine/threonine-protein kinase 10 (Homo sapiens) (UniProt O94804); settings: Compound concentration 1000.0 nM

N#Cc1ccc(Nc2ccc3[nH]c(=O)[nH]c3c2)c(Cl)c1
inactive: inhibition [1] -9.92% | inhibition [2] 8.12% | residual activity [3] 100% | residual activity [4] 100% | residual activity [5] 100% | residual activity [6] 100% | residual activity [7] 83% | residual activity [8] 100% | residual activity [9] 78% | residual activity [10] 100% | residual activity [11] 100% | residual activity [12] 100% | residual activity [13] 100% | residual activity [14] 90% | residual activity [15] 88% | residual activity [16] 100% | residual activity [17] 94% | residual activity [18] 100% | residual activity [19] 94% | residual activity [20] 100% | residual activity [21] 96% | residual activity [22] 100% | residual activity [23] 100% | residual activity [24] 100% | residual activity [25] 79% | residual activity [26] 93% | residual activity [27] 100% | residual activity [28] 97% | residual activity [29] 100% | residual activity [30] 100% | residual activity [31] 90% | residual activity [32] 100% | inhibition [33] -1.18% | residual activity [34] 95% | residual activity [35] 100% | residual activity [36] 69% | inhibition [37] 5.37% | residual activity [38] 100% | residual activity [39] 100% | residual activity [40] 87% | residual activity [41] 100% | residual activity [42] 100% | residual activity [43] 100% | residual activity [44] 85% | residual activity [45] 100%

O=C1CCc2cc(Nc3cc(OC4CCOCC4)c([N+](=O)[O-])cc3Cl)ccc2N1
inactive: inhibition [1] -4.43% | inhibition [2] 12.3% | residual activity [3] 100% | residual activity [4] 100% | residual activity [5] 79% | residual activity [6] 99% | residual activity [7] 74% | residual activity [8] 82% | residual activity [9] 93% | residual activity [10] 100% | residual activity [11] 100% | residual activity [12] 100% | residual activity [13] 100% | residual activity [14] 99% | residual activity [15] 100% | residual activity [16] 100% | residual activity [17] 80% | residual activity [18] 83% | residual activity [19] 100% | residual activity [20] 100% | residual activity [21] 94% | residual activity [22] 100% | residual activity [23] 100% | residual activity [24] 94% | residual activity [25] 79% | residual activity [26] 100% | residual activity [27] 86% | residual activity [28] 98% | residual activity [29] 84% | residual activity [30] 91% | residual activity [31] 100% | residual activity [32] 100% | inhibition [33] -2.48% | residual activity [34] 72% | residual activity [35] 98% | residual activity [36] 94% | inhibition [37] 3.21% | residual activity [38] 100% | residual activity [39] 98% | residual activity [40] 86% | residual activity [41] 99% | residual activity [42] 93% | residual activity [43] 100% | residual activity [44] 76% | residual activity [45] 100%
